Data on five molecules can be found in patent US12559529B2, “NPY2 receptor agonists” (Boehringer Ingelheim International GmbH, priority 2019, dated 2026).

For experiment [1], the target named is T1, Human Neuropeptide Y2 Receptor (Homo sapiens, UniProt P49146).
T1 construct: purchased CHEMICON HTS066M
T1 sequence (P49146 1-381): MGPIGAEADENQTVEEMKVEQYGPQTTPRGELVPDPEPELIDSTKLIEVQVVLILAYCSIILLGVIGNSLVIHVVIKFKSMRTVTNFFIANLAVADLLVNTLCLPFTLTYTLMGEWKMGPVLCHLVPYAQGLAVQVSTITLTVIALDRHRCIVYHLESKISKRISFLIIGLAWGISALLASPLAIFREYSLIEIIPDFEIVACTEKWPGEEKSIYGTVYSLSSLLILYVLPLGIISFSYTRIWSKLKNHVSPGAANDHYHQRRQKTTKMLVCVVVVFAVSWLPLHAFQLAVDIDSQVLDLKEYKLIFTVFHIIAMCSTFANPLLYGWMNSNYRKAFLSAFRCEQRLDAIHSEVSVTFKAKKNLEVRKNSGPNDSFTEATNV
Description: Radioligand binding competition assay (RLB). Conditions: Table 3; human 125I-PYY (1-36) 0.02 nM, Y2 receptor membranes; read-out: Ki. Put shortly:
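Membranes from cells expressing human Y2 receptor (0.5 μg protein/well) were incubated with radioligand and serially diluted peptides in 50 mM HEPES, 5 mM MgCl2, 1 mM CaCl2, 0.2% ovalbumin, pH 7.4, for 2 h at room temperature with shaking. Bound radioactivity was collected by filtration and counted; IC50 from sigmoidal nonlinear regression.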

The next experiment relates to normal NMRI mice. The experiment is described as follows: Effect on acute food intake in normal NMRI mice. It is filed as in vivo. The note with it: male NMRI mice, 10 nmol/kg subcutaneously once. Put shortly:
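A single 10 nmol/kg s.c. peptide dose was given 1 h before lights-off to male NMRI mice fasted from 6 h before the night phase (n=7-8). Intake was recorded continuously by microchip-identified HM-2 feeding channels. Values are normalized to vehicle controls (50 mM phosphate buffer pH7 with 5% Mannitol).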

SMILES strings stand for the structures. *1 amine or outer side, *2 acyl side, *3 side chain or, on linkers, in order; H or OH if unused. Where a SMILES comes first, the peptide text is derived from it. Side-chain parts run from the residue outwards. The star is where a group is joined. C18 diacid = O=C(O)CCCCCCCCCCCCCCCCC(=O)*; γGlu = O=C(O)[C@H](CCC(=O)[*:2])N[*:1]; Isovaleryl = CC(C)CC(=O)*; AEEA = NCCOCCOCC(=O)O

With `CC(C)CC(=O)N[C@@H](C)C(=O)N1CCC[C@H]1C(=O)N[C@@H](CCC(=O)O)C(=O)N[C@@H](CCCCNC(=O)COCCOCCNC(=O)COCCOCCNC(=O)CC[C@H](NC(=O)CCCCCCCCCCCCCCCCC(=O)O)C(=O)O)C(=O)N1CCC[C@H]1C(=O)N[C@@H](CCC(=O)O)C(=O)N[C@@H](CCC(=O)O)C(=O)N[C@@H](CC(=O)O)C(=O)N[C@@H](C)C(=O)N[C@@H](CO)C(=O)N1CCC[C@H]1C(=O)N[C@@H](CCC(=O)O)C(=O)N[C@@H](C)C(=O)N[C@@H](CC(C)C)C(=O)N[C@@H](CCC(N)=O)C(=O)N[C@@H](CCCNC(=N)N)C(=O)N[C@@H](Cc1ccc(O)cc1)C(=O)N[C@@H](Cc1ccc(O)cc1)C(=O)N[C@H](C(=O)N[C@@H](CCC(=O)O)C(=O)N[C@@H](CC(C)C)C(=O)N[C@@H](CCCNC(=N)N)C(=O)N[C@@H](Cc1c[nH]cn1)C(=O)N[C@@H](Cc1ccc(O)cc1)C(=O)N[C@@H](Cc1ccc(O)cc1)C(=O)N[C@@H](CC(N)=O)C(=O)N[C@@H](Cc1c[nH]c2ccccc12)C(=O)N[C@@H](CC(C)C)C(=O)N[C@H](C(=O)N[C@@H](CCCNC(=N)N)C(=O)N[C@@H](CCC(N)=O)C(=O)N[C@@H](CCCNC(=N)N)C(=O)N[C@@H](Cc1ccc(O)cc1)C(N)=O)[C@@H](C)O)C(C)C` [Compound 195, N{alpha-4}-(3-methylbutanoyl)-N{epsilon-7}-[2-(2-{2-[2-(2-{2-[(4S)-4-carboxy-4-(17-carboxyheptadecanamido)butanamido]ethoxy}ethoxy)acetamido]ethoxy}ethoxy)acetamido]-[4A,7K,9E,16A,18Q,22V,23E,28Y,30W,31L]hPYY (4-36)], in experiment [1], the inhibition constant (Ki) (commonly the equilibrium dissociation constant of an inhibitor or competing ligand from its target) amounted to 0.75 nM. In addition, in the experiment with normal NMRI mice, the “Acute Food Intake 24 h [% vehicle]” value stood at 50 % vehicle.

With `CC(C)CC(=O)N[C@@H](C)C(=O)N1CCC[C@H]1C(=O)N[C@@H](CCC(=O)O)C(=O)N[C@@H](CCCCNC(=O)COCCOCCNC(=O)COCCOCCNC(=O)CC[C@H](NC(=O)CCCCCCCCCCCCCCCCC(=O)O)C(=O)O)C(=O)N1CCC[C@H]1C(=O)N[C@@H](CCC(=O)O)C(=O)N[C@@H](CCC(=O)O)C(=O)N[C@@H](CC(=O)O)C(=O)N[C@@H](C)C(=O)N[C@@H](C)C(=O)N1CCC[C@H]1C(=O)N[C@@H](CCC(=O)O)C(=O)N[C@@H](CCC(=O)O)C(=O)N[C@@H](CC(C)C)C(=O)N[C@@H](CCC(N)=O)C(=O)N[C@@H](CCCCN)C(=O)N[C@@H](Cc1ccc(O)cc1)C(=O)N[C@@H](Cc1ccc(O)cc1)C(=O)N[C@H](C(=O)N[C@@H](CO)C(=O)N[C@@H](CC(C)C)C(=O)N[C@@H](CCCNC(=N)N)C(=O)N[C@@H](Cc1c[nH]cn1)C(=O)N[C@@H](Cc1ccc(O)cc1)C(=O)N[C@@H](Cc1ccc(O)cc1)C(=O)N[C@@H](CC(N)=O)C(=O)N[C@@H](Cc1c[nH]c2ccccc12)C(=O)N[C@@H](CC(C)C)C(=O)N[C@H](C(=O)N[C@@H](CCCNC(=N)N)C(=O)N[C@@H](CCC(N)=O)C(=O)N[C@@H](CCCNC(=N)N)C(=O)N[C@@H](Cc1ccc(O)cc1)C(N)=O)[C@@H](C)O)C(C)C` [Compound 202, N{alpha-4}-(3-methylbutanoyl)-N{epsilon-7}-[2-(2-{2-[2-(2-{2-[(4S)-4-carboxy-4-(17-carboxyheptadecanamido)butanamido]ethoxy}ethoxy)acetamido]ethoxy}ethoxy)acetamido]-[4A,7K,9E,13A,18Q,19K,22V,28Y,30W,31L]hPYY (4-36)], the Ki in experiment [1] was 0.6 nM. Further, the “Acute Food Intake 24 h [% vehicle]” value in the experiment with normal NMRI mice is listed as 48 % vehicle.

As to `CC(C)CC(=O)N[C@@H](C)C(=O)N1CCC[C@H]1C(=O)N[C@@H](CCC(=O)O)C(=O)N[C@@H](CCCCNC(=O)COCCOCCNC(=O)COCCOCCNC(=O)CC[C@H](NC(=O)CCCCCCCCCCCCCCCCC(=O)O)C(=O)O)C(=O)N1CCC[C@H]1C(=O)N[C@@H](CCC(=O)O)C(=O)N[C@@H](CCC(=O)O)C(=O)N[C@@H](CCC(=O)O)C(=O)N[C@@H](C)C(=O)N[C@@H](CO)C(=O)N1CCC[C@H]1C(=O)N[C@@H](CCC(=O)O)C(=O)N[C@@H](CCC(=O)O)C(=O)N[C@@H](CC(C)C)C(=O)N[C@@H](CCC(N)=O)C(=O)N[C@@H](CCCCN)C(=O)N[C@@H](Cc1ccc(O)cc1)C(=O)N[C@@H](Cc1ccc(O)cc1)C(=O)N[C@H](C(=O)N[C@@H](CO)C(=O)N[C@@H](CC(C)C)C(=O)N[C@@H](CCCNC(=N)N)C(=O)N[C@@H](Cc1c[nH]cn1)C(=O)N[C@@H](Cc1ccc(O)cc1)C(=O)N[C@@H](Cc1ccc(O)cc1)C(=O)N[C@@H](CC(N)=O)C(=O)N[C@@H](Cc1c[nH]c2ccccc12)C(=O)N[C@@H](CC(C)C)C(=O)N[C@H](C(=O)N[C@@H](CCCNC(=N)N)C(=O)N[C@@H](CCC(N)=O)C(=O)N[C@@H](CCCNC(=N)N)C(=O)N[C@@H](Cc1ccc(O)cc1)C(N)=O)[C@@H](C)O)C(C)C` [Compound 205, N{alpha-4}-(3-methylbutanoyl)-N{epsilon-7}-[2-(2-{2-[2-(2-{2-[(4S)-4-carboxy-4-(17-carboxyheptadecanamido)butanamido]ethoxy}ethoxy)acetamido]ethoxy}ethoxy)acetamido]-[4A,7K,9E,11E,18Q,19K,22V,28Y,30W,31L]hPYY (4-36)] (Isovaleryl-APEK([AEEA-AEEA-γGlu-C18 diacid])PEEEASPEELQKYYVSLRHYYNWLTRQRY-NH2), the Ki in experiment [1] was 1.9 nM. In addition, the “Acute Food Intake 24 h [% vehicle]” value in the experiment with normal NMRI mice is reported as 65 % vehicle.

Consider `CC(C)CC(=O)N[C@@H](C)C(=O)N1CCC[C@H]1C(=O)N[C@@H](CCC(=O)O)C(=O)N[C@@H](CCCCNC(=O)COCCOCCNC(=O)COCCOCCNC(=O)CC[C@H](NC(=O)CCCCCCCCCCCCCCCCC(=O)O)C(=O)O)C(=O)N1CCC[C@H]1C(=O)N[C@@H](CCC(=O)O)C(=O)N[C@@H](CCC(=O)O)C(=O)N[C@@H](CC(=O)O)C(=O)N[C@@H](C)C(=O)N[C@@H](CO)C(=O)N[C@@H](CCC(=O)O)C(=O)N[C@@H](CCC(=O)O)C(=O)N[C@@H](CCC(=O)O)C(=O)N[C@H](C(=O)N[C@@H](CCC(N)=O)C(=O)N[C@@H](CCCNC(=N)N)C(=O)N[C@@H](Cc1ccc(O)cc1)C(=O)N[C@@H](Cc1ccc(O)cc1)C(=O)N[C@H](C(=O)N[C@@H](CO)C(=O)N[C@@H](CC(C)C)C(=O)N[C@@H](CCCNC(=N)N)C(=O)N[C@@H](Cc1c[nH]cn1)C(=O)N[C@@H](Cc1ccc(O)cc1)C(=O)N[C@@H](Cc1ccc(O)cc1)C(=O)N[C@@H](CC(N)=O)C(=O)N[C@@H](Cc1c[nH]c2ccccc12)C(=O)N[C@@H](CC(C)C)C(=O)N[C@H](C(=O)N[C@@H](CCCNC(=N)N)C(=O)N[C@@H](CCC(N)=O)C(=O)N[C@@H](CCCNC(=N)N)C(=O)N[C@@H](Cc1ccc(O)cc1)C(N)=O)[C@@H](C)O)C(C)C)[C@@H](C)O` [Compound 208, N{alpha-4}-(3-methylbutanoyl)-N{epsilon-7}-[2-(2-{2-[2-(2-{2-[(4S)-4-carboxy-4-(17-carboxyheptadecanamido)butanamido]ethoxy}ethoxy)acetamido]ethoxy}ethoxy)acetamido]-[4A,7K,9E,14E,17T,18Q,22V,28Y,30W,31L]hPYY (4-36)], for which the inhibition constant Ki in experiment [1] was determined as 3.8 nM. Moreover, the “Acute Food Intake 24 h [% vehicle]” value in the experiment with normal NMRI mice stood at 61 % vehicle.

With `CC(C)CC(=O)N[C@@H](C)C(=O)N1CCC[C@H]1C(=O)N[C@@H](CCC(=O)O)C(=O)N[C@@H](CCCCNC(=O)COCCOCCNC(=O)COCCOCCNC(=O)CC[C@H](NC(=O)CCCCCCCCCCCCCCCCC(=O)O)C(=O)O)C(=O)N1CCC[C@H]1C(=O)N[C@@H](CCC(=O)O)C(=O)N[C@@H](CCC(=O)O)C(=O)N[C@@H](CC(=O)O)C(=O)N[C@@H](CO)C(=O)N[C@@H](CCC(=O)O)C(=O)N1CCC[C@H]1C(=O)N[C@@H](CCC(=O)O)C(=O)N[C@@H](CCC(=O)O)C(=O)N[C@@H](CC(C)C)C(=O)N[C@@H](CCC(N)=O)C(=O)N[C@@H](CCCNC(=N)N)C(=O)N[C@@H](Cc1ccc(O)cc1)C(=O)N[C@@H](Cc1ccc(O)cc1)C(=O)N[C@H](C(=O)N[C@@H](CO)C(=O)N[C@@H](CC(C)C)C(=O)N[C@@H](CCCNC(=N)N)C(=O)N[C@@H](Cc1c[nH]cn1)C(=O)N[C@@H](Cc1ccc(O)cc1)C(=O)N[C@@H](Cc1ccc(O)cc1)C(=O)N[C@@H](CC(N)=O)C(=O)N[C@@H](Cc1c[nH]c2ccccc12)C(=O)N[C@@H](CC(C)C)C(=O)N[C@H](C(=O)N[C@@H](CCCNC(=N)N)C(=O)N[C@@H](CCC(N)=O)C(=O)N[C@@H](CCCNC(=N)N)C(=O)N[C@@H](Cc1ccc(O)cc1)C(N)=O)[C@@H](C)O)C(C)C` [Compound 209, N{alpha-4}-(3-methylbutanoyl)-N{epsilon-7}-[2-(2-{2-[2-(2-{2-[(4S)-4-carboxy-4-(17-carboxyheptadecanamido)butanamido]ethoxy}ethoxy)acetamido]ethoxy}ethoxy)acetamido]-[4A,7K,9E,12S,13E,18Q,22V,28Y,30W,31L]hPYY (4-36)], the inhibition constant (Ki) in experiment [1] came out at 8.07 nM. For the same molecule, in the experiment on normal NMRI mice, the “Acute Food Intake 24 h [% vehicle]” value is reported as 50 % vehicle.
